Measured values published in patent US10391084B2, “Methods and compositions to treat cancer” (CHILDREN'S HOSPITAL MEDICAL CENTER, priority 2013, dated 2019).
Values belong to the molecule of their own block, whether it stands above or below them.

Tests used:
[1] = system: midkine promoter coupled to a luciferase reporter gene; assay: Midkine promoter-luciferase reporter screen in stably transfected HEK293 cells, dose-response; type: cell-based; details: for EC50: Homo sapiens, HEK293 reporter cells, midkine expression upregulated with retinoic acid
Experimental: A library of compounds was screened for activity to reduce expression of midkine in vitro. HEK293 cells were stably transfected with the pGL4 vector comprising a midkine promoter coupled to a luciferase reporter gene. […] Changes in luciferase production were measured to access the inhibitory activity of the test compounds. The primary screen included 44,000 test compounds. Test compounds that reduced cell viability by more than 50% were eliminated from the screen. From the primary screen, 351 test compounds were further examined. From the secondary screen, 78 test compounds were examined using a dose-response assay, and the EC50 for the test compounds was determined.
In order to find a therapeutic compound that inhibits MDK expression, a MDK reporter cell line by stably transfecting HEK293 cells with a MDK promoter-fused luciferase construct was developed. This modified cell line was used to screen 44,000 compounds at the Drug Discovery Center at the University of Cincinnati. See Example 1. Detection of luciferase activity was used to identify MDK inhibitors.

[2] = Systemic toxicity in mice (body weight, serum AST and ALT); type: in vivo, BALB/c nude mice
Experimental: (§1) Mouse experiments: human lung cancer xenografts were established in 6-wk-old female BALB/c nude mice (Charles River Laboratories Japan, Kanagawa, Japan) by subcutaneous (s.c.) inoculation of H441 cells (1×10^6/50 μl) mixed with Matrigel® (BD Pharmingen, San Diego, Calif.; 50 μl) into the dorsal flank (Watanabe N, et al., Clin. Cancer Res. 2008; 14:4631-9). The mice were randomly assigned into three groups (n=8 per group) 14 days after tumor inoculations. One group of mice was intraperitonially injected with 100 μl solution containing iMDK (9 mg/kg) three days per week (on days 1, 3, 5, 8, 10) and another group of mice was injected five days per week (on days 1, 2, 3, 4, 5, 8, 9, 10). DMSO was injected into the control group. Tumors were measured two to three times a week, and tumor volume was calculated as a×b^2×0.5, where a and b were large and small diameters, respectively. On day 10, all mice were sacrificed after body weight was measured and tumors were removed and prepared for histology. For analysis of serum AST and ALT, blood was drawn from the heart 48 hours after intraperitonially injected with 100 μl solution containing iMDK (9 mg/kg). DMSO was injected into the control group and four mice were used for each group.

H441 cells [3] = assay: Hoechst staining for apoptotic morphology in H441 cells; type: cell-based, human; details: H441, Hoechst 33342, 48 hours after treatment
Experimental: Hoechst staining: the morphologic characteristics of apoptosis were evaluated using Hoechst 33342 dye (Molecular Probes, Eugene, Oreg.), which stains DNA. Cells were incubated with 1 μg/ml Hoechst dye and then visualized under a fluorescence microscope (IX81, Olympus Medical Systems Corp., Tokyo, Japan) (Ogawa N, et al., Int. J. Cancer. 1997; 73:367-70).

XIAP = assay: Immunoblot of XIAP in H441 cells; type: cell-based, human; details: H441, dose- and time-dependent
Experimental: (§2) Immunoblot analysis: cells were lysed in ice-cold lysis buffer [1% Triton X-100, 20 mM Tris-HCl (pH 8.0), 137 mM NaCl, 10% glycerol (v/v), 2 mM EDTA, 1 mM sodium orthovanadate (v/v), 1 mM phenylmethylsulfonyl fluoride]. Cell lysates were clarified by centrifugation (10 min at 15,000×g at 4° C.) and protein concentration determined using the BCA protein assay (Thermo Fisher Scientific, Rockford, Ill.). Equal amounts of protein were separated on an SDS-PAGE gel. The gel was electrophoretically transferred to a Hybond PVDF transfer membrane (Amersham, Arlington Heights, Ill.) and incubated with primary and secondary antibodies according to the Supersignal® West Pico chemiluminescence protocol (Pierce, Rockford, Ill.). Antibody specific for β-actin antibody was obtained from Sigma (St. Louis, Mo.) and antibody specific for human MDK was obtained from Abcam (Cambridge, UK). Antibody specific for caspase-3, PI3 kinase p85, phosphorylated-PI3K p85 (Tyr458)/p55 (Tyr199), AKT, phosphorylated-AKT (Ser473), Bad, XIAP, survivin were obtained from Cell Signaling Technology (Beverly, Mass.). Antibody specific for VEGF was purchased from Santa Cruz Biotechnology (Santa Cruz, Calif.). Secondary horseradish peroxidase-conjugated antibodies were obtained from Jackson Immunoresearch Laboratories (West Grove, Pa.). […]

[4] = system: H441 lung adenocarcinoma cells; assay: Cell viability assay, trypan blue exclusion, H441; type: cell-based, human
From the text: (§3) Cell Lines and Culture Conditions: the human pulmonary adenocarcinoma cells H322, H358, H441 and A549 and the human lung squamous cell carcinoma cells H520 were obtained from the American Type Culture Collection (Manassas, Va.) and grown in RPMI 1640 (H322, H358, H520) or high glucose Dulbecco's modified Eagle medium (H441, A549 cells) supplemented with 10% heat-inactivated fetal bovine serum. The human malignant mesothelioma cells ACC-MESO-1 (MESO-1) obtained from JCRB Cell Bank (Osaka, Japan) and the human lung squamous cell carcinoma cells SQ5 were grown in RPMI 1640 supplemented with 10% heat-inactivated fetal bovine serum. The normal human lung fibroblasts (NHLF) obtained from Clonetics (San Diego, Calif.) were grown in high glucose Dulbecco's modified Eagle medium. All cell lines were cultured in 10% CO2 at 37° C.
The following day 100 pmol of Smart Pool MK siRNA or nontargeting siRNA (Dharmacon, Perbio Science, France) was transfected using 2 μl Lipofectamine 2000 (Invitrogen Life Technologies, Carlsbad, Calif.) according to the manufacturer's instructions. […]
Cell viability assay: H441 cells, A549 cells, H520 cells, HEK293 cells and NHLF were plated in 24-well plates at a density of 1×10^5 cells and cultured at 37° C. for 24 hours. […] Viable cells were assessed by trypan blue exclusion. […]

BAD = assay: Immunoblot of BAD in H441 cells; type: cell-based, human; details: H441, dose- and time-dependent
Experimental: as §2

[5] = system: HEK293 embryonic kidney cells; assay: Cell viability assay, trypan blue exclusion, HEK293; type: cell-based; details: HEK293, 0 to 500 nM, 48 hours after treatment
Experimental: Cell viability assay: H441 cells, A549 cells, H520 cells, HEK293 cells and NHLF were plated in 24-well plates at a density of 1×10^5 cells and cultured at 37° C. for 24 hours. Medium was removed by aspiration and replaced with fresh culture medium containing iMDK dissolved in DMSO (10, 50, 100, 500 nmol/L). DMSO alone was used as the control. Cells were treated for 48 hours and collected by trypsinization. Viable cells were assessed by trypan blue exclusion. Recombinant MDK was purchased from R&D Systems (Minneapolis, Minn.) and reconstituted in water for block experiments. For MDK block experiments, H441 cells were cultured in Dulbecco's modified Eagle medium supplemented with 1% heat-inactivated fetal bovine overnight and recombinant MDK (25 nM) or/and iMDK (25 nM) was added for an additional 48 hours.

AKT = assay: Immunoblot of AKT phosphorylation in H441 cells; type: cell-based, human; details: H441, dose- and time-dependent
Experimental: as §2

[6] = system: H520 lung squamous cell carcinoma cells; assay: Cell viability assay, trypan blue exclusion, H520; type: cell-based, human; details: H520, 0 to 500 nM, 48 hours after treatment
From the text: as §3
Cell viability assay: H441 cells, A549 cells, H520 cells, HEK293 cells and NHLF were plated in 24-well plates at a density of 1×10^5 cells and cultured at 37° C. for 24 hours. Medium was removed by aspiration and replaced with fresh culture medium containing iMDK dissolved in DMSO (10, 50, 100, 500 nmol/L). DMSO alone was used as the control. Cells were treated for 48 hours and collected by trypsinization. Viable cells were assessed by trypan blue exclusion. […]

PI3K = assay: Immunoblot of PI3K phosphorylation in H441 cells; type: cell-based, human; details: H441, dose- and time-dependent
Experimental: as §2

NHLF cells = assay: Flow cytometric analysis for apoptosis (sub-G0/G1 DNA content), NHLF; type: cell-based, human; details: DMSO control 0.32%
Experimental: (§4) Flow cytometric analysis for apoptosis: cells were plated in 24-well plates at a density of 0.5×10^5 cells per well 1 day before the treatments. After 72 hours, cells were harvested and washed once with PBS. Cells were resuspended in PBS containing 0.2% Triton X-100 and 1 mg/ml RNase for 5 min at room temperature and then stained with propidium iodide at 50 μg/ml to determine sub-G0/G1 DNA content using a FACScan. Doublets, cell debris, and fixation artifacts were gated out, and sub-G0/G1 DNA content was determined using Cell Quest Ver. 3.3 software.

[7] = system: xenografts derived from H441 lung adenocarcinoma cells; assay: H441 lung adenocarcinoma xenograft in nude mice; type: in vivo, BALB/c nude mice; details: 9 mg/kg intraperitoneal
Experimental: as §1
For immunohistochemistry, sections were sequentially deparaffinized through a series of xylene, graded ethanol, and water immersion steps. After being autoclaved in 0.2% citrate buffer for 15 minutes, sections were incubated with 3% hydrogen peroxide for 30 minutes to block endogenous peroxidase activity. A primary antibody specific for PI3 kinase p85, phosphorylated-PI3K p85 (Tyr458)/p55 (Tyr199) from Cell Signaling Technology and for MDK from Abcam were used. Specimens were incubated overnight at 4° C. with a 1:200 dilution of antibody followed by three washes with TBS. The slides were treated with streptoavidin-biotin complex (Envision System labeled polymer, horseradish peroxidase (HRP), Dako, Carpinteria, Calif.) for 60 minutes at a dilution of 1:100. […]

H441 cells [8] = assay: Flow cytometric analysis for apoptosis (sub-G0/G1 DNA content), H441; type: cell-based, human; details: 72 hours, DMSO control 1.24%
Experimental: as §4

survivin = assay: Immunoblot of survivin in H441 cells; type: cell-based, human; details: H441, dose- and time-dependent
Experimental: as §2

caspase-3 = assay: Immunoblot of caspase-3 cleavage in H441 cells; type: cell-based, human; details: H441, even at the lowest concentrations (5 nM), 48 hours after treatment
Experimental: as §2

[9] = 48 hours after 9 mg/kg intraperitoneal

EC50 [1]: 14 nM
SMILES: O=c1oc2ccccc2cc1-c1cn2cc(Cc3ccc(Cl)cc3)sc2n1 [Example compound 1]

SMILES: O=c1oc2ccccc2cc1-c1cn2cc(Cc3ccc(F)cc3)sc2n1 [Example compound 2, 3-[2-(4-fluorobenzyl)imidazo[2,1-beta][1,3]thiazol-6-yl]-2H-chromen-2-one]
body weight ([2]; 9 mg/kg intraperitoneal, day 10): did not influence
serum level of ALT [2, 9]: did not influence
serum level of AST [2, 9]: did not influence
nuclear fragmentation (H441 cells [3]): induced nuclear fragmentation in a dose-dependent manner
XIAP expression (XIAP): reduced
cell growth ([4]; H441, 0 to 500 nM, 48 hours after treatment): dose-dependently inhibited cell growth
suppression of cell growth with pretreatment of recombinant MDK ([4]; H441, recombinant MDK 25 nM, iMDK 25 nM, 48 hours): partially blocked
BAD expression (BAD): induced
cell growth [5]: dose-dependently inhibited cell growth
Phosphorylation of AKT (AKT): suppressed
cell growth [6]: dose-dependently inhibited cell growth
Phosphorylation of PI3K (PI3K): suppressed
sub-G0G1 DNA content (NHLF cells; 10 nM): 0.52%
sub-G0G1 DNA content (NHLF cells; 25 nM): 1.51%
activity to reduce expression of midkine (in words) ([1]; reporter screen, dose response): exceptional activity
volume of the tumors versus control group ([7]; 3 or 5 times a week): significantly lower
lung tumor growth ([7]; 3 or 5 times a week, from 14 days after inoculation): arrested
Tunel staining, DNA fragmentation in tumors ([7]; xenograft tumors): detected DNA fragmentation
sub-G0/G1 DNA content (H441 cells [8]; H441, 10 nM): 37.00%
sub-G0/G1 DNA content (H441 cells [8]; H441, 25 nM): 60.91%
survivin expression (survivin): reduced
cleaved forms of caspase-3 (caspase-3): induced

EC50 [1]: 12.2 nM
SMILES: O=c1oc2ccccc2cc1-c1cn2cc(Cc3ccc(Br)cc3)sc2n1 [Example compound 3]

EC50 [1]: 15.9 nM
SMILES: O=c1oc2ccccc2cc1-c1cn2cc(Cc3cc(Cl)ccc3Cl)sc2n1 [Example compound 4]
